From paper PMC4076079, “Selective inhibitors of a PAF biosynthetic enzyme lysophosphatidylcholine acyltransferase 2” (Journal of Lipid Research, 2014)
Several values for one entry are separate records, joined by “and”; a condition that tells them apart may be missing. Equal values may be shown once.

Tests used:
hLPCAT2 = biological target: T1, hLPCAT2 (Homo sapiens, UniProt Q7L5N7); assay: lyso-PAFAT (acetyltransferase) activity assay, PAF product by LC-MS/MS; assay type: biochemical; details: for IC50: 0, 0.2, 0.6, 2, 6 and 20 μM of each compound in triplicate, LC-MS/MS, read-out: IC50, product PAF, enzyme hLPCAT2; for percentage inhibition, product PAF, hLPCAT2: 20 μM compound, microsomal fractions of nonstimulated CHO-S-PAFR cells, n = 3, mean ± SEM; for selectivity for hLPCAT2 over hLPCAT1: from IC50 values of Table 1
T1 construct: expressed in transfected cells; host or cells: CHO-S-PAFR cells (microsomal fraction), with or without mcPAF stimulation
T1 sequence (Q7L5N7 1-544): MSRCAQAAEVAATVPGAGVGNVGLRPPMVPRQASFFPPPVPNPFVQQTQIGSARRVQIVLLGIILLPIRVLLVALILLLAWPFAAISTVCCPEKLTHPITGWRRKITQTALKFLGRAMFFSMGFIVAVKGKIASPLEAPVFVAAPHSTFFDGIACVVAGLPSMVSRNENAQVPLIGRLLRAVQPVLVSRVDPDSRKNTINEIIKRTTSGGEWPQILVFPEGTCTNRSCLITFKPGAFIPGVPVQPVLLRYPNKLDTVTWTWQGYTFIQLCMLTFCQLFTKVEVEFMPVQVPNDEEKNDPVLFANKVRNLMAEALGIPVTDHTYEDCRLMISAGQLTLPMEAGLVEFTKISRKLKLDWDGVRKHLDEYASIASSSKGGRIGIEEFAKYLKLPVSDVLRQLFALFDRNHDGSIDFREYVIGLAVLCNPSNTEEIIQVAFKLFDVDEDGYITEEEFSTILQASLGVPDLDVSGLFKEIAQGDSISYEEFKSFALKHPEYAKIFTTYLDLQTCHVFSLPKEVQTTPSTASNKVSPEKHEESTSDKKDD
Protocol: (§1) Microsomal protein fractions (0.5 μg) supplemented with the indicated compound concentrations were added to the reaction mixture containing 100 mM Tris-HCl (pH 7.4), 1 μM CaCl2, 0.015% Tween-20, and two substrates. For acetyltransferase activity, the substrates were 1 mM acetyl-CoA and 5 μM d4-lyso-PAF; for the acyltransferase activity of LPCAT1 or LPCAT2, the substrates were, respectively, palmitoyl-CoA and d31-16:0 LPC or arachidonoyl-CoA and d4-lyso-PAF (all 5 μM). Each lysophospholipid contained fatty acid at the sn-1 position. After incubation at 37°C for 5 min, the reactions were stopped by adding 300 μl methanol containing 17:0 LPC or 14:0/14:0 PC as an internal standard. Deuterium-labeled products were analyzed by LC-MS/MS (Waters, Milford, MA and Thermo Scientific, Waltham, MA). […]
(§2) Steps 2 to 5 screening: 96-well plate assay
(§3) Acetyltransferase and acyltransferase assays were developed in 96-well plates. The microsomal hLPCAT2, obtained from mcPAF-stimulated CHO-S-PAFR cells was used in steps 1, 2, and 5. The microsomal hLPCAT1 obtained from unstimulated CHO-S cells was used in steps 3 to 5. Each well of the 96-well plates contained 30 µl of 15 µg/ml protein, 600 nl of 2 mM compound, 30 µl buffer C, and two substrates (Fig. 1B and C).
(§4) Substrate concentrations were as follows: acetyl-CoA, 250 or 1000 µM acetyl-CoA; […]
(§5) arachidonoyl-CoA, 5 µM; palmitoyl-CoA, 5 µM; d4-lyso-PAF, 5 µM; and d31-LPC, 5 µM.
For step 5, compound concentrations were 0, 0.167, 0.67, 2, 6.7, and 20 µM. The deuterium-labeled products were measured by LC-MS/MS. Percentage inhibition (steps 2 to 4) or IC50 (step 5) was used as the hit criterion.
Step 6 screening: BSA assay
The acetyltransferase assay was performed with 20 µM of each compound and microsomal hLPCAT2 from step 1. The assay mixture contained 0.4% BSA and two substrates for lyso-PAFAT activity: 1 mM acetyl-CoA and 5 µM d4-lyso-PAF. Percentage inhibition values were determined.
(§6) Step 7 screening: species-specific differences
(§7) To evaluate the effects on the activity of mouse or human LPCAT1 and LPCAT2, each microsomal fraction was obtained using CHO-S-PAFR cells with or without mcPAF (200 nM) stimulation for 5 min. Acetyltransferase and acyltransferase assays were performed with 20 µM of each compound. Percentage inhibition was calculated in each

hLPCAT1 = biological target: T2, hLPCAT1 (Homo sapiens, UniProt Q8NF37); assay: acyltransferase activity assay, DPPC product by LC-MS/MS; assay type: biochemical; details: for IC50: 0, 0.2, 0.6, 2, 6 and 20 μM of each compound in triplicate, LC-MS/MS, read-out: IC50, product DPPC, enzyme hLPCAT1; for percentage inhibition, product DPPC, hLPCAT1: 20 μM compound, microsomal fractions of nonstimulated CHO-S-PAFR cells, n = 3, mean ± SEM
T2 construct: expressed in transfected cells
T2 sequence (Q8NF37 1-534): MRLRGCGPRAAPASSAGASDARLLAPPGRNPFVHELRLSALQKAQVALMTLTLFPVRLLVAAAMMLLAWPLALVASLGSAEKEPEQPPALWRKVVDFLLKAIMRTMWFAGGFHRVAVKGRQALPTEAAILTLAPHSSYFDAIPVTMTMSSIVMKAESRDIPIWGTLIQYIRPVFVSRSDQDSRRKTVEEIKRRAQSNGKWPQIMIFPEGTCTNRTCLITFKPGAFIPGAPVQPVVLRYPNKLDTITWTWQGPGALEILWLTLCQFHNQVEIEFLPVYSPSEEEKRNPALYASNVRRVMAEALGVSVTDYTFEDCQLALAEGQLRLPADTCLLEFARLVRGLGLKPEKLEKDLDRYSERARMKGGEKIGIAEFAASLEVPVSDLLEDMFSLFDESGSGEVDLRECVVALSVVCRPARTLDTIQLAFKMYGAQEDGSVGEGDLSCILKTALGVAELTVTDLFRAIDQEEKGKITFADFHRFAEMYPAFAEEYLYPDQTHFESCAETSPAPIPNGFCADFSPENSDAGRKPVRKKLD
Protocol: as §1, §2, §3, §4, §5
For step 5, compound concentrations were 0, 0.167, 0.67, 2, 6.7, and 20 µM. The deuterium-labeled products were measured by LC-MS/MS. Percentage inhibition (steps 2 to 4) or IC50 (step 5) was used as the hit criterion. […]
as §6, §7

SMILES | IC50 (hLPCAT2) | percentage inhibition, product PAF, hLPCAT2 (hLPCAT2) [percentage] | selectivity for hLPCAT2 over hLPCAT1 (hLPCAT2) | IC50 (hLPCAT1) [nM] | percentage inhibition, product DPPC, hLPCAT1 (hLPCAT1) [percentage]
CC(C)OC(=O)c1ccc(N2C(=O)C(Cl)=C(Nc3ccccc3O)C2=O)cc1 [TSI-07] | 5500 nM | 90.8 ± 3.0 | approximately 10 fold | > 20000 | 19.5 ± 8.0
CCCCOC(=O)c1ccc(N2C(=O)C(Cl)=C(Cl)C2=O)cc1 [TSI-11, butyl 4-(3,4-dichloro-2,5-dioxopyrrol-1-yl)benzoate] | ~100 nM and 140 nM | 99.4 ± 0.2 | approximately 10 fold | > 20000 | 14.2 ± 4.8
CCCOC(=O)c1ccc(N2C(=O)C(Cl)=C(Cl)C2=O)cc1 [TSI-10] | ~100 nM and 130 nM | 99.5 ± 0.2 | approximately 10 fold | > 20000 | 23.9 ± 3.4
O=C1C(Cl)=C(N2CCOCC2)C(=O)N1c1ccc(Oc2ccccc2)cc1 [TSI-02, 3-chloro-4-morpholin-4-yl-1-(4-phenoxyphenyl)pyrrole-2,5-dione] | 2170 nM | – | – | > 20000 | –
CC(C)OC(=O)c1ccc(N2C(=O)C(Cl)=C(Cl)C2=O)cc1 [TSI-01, propan-2-yl 4-(3,4-dichloro-2,5-dioxopyrrol-1-yl)benzoate] | 470 nM | 99.8 ± 0.1 | approximately 10 fold | > 20000 | 25.3 ± 8.7
